Data: patent publication US12194039B2, “Methods of treating heart failure by administering omecamtiv mecarbil” (Cytokinetics, Inc., priority 2020, dated 2025)
Entries after “also recorded” stand apart in the source; their conditions may differ. Read-outs that look alike come from different tables or passages of the source.

Tests used:
[1] = test system: patients with heart failure and reduced ejection fraction; assay type: in vivo, human; conditions: for Change in KCCQ total symptom score at week 24, least squares mean (SE): scale 0 to 100; for All-cause death, hazard ratio (95% CI) / Cardiovascular death, hazard ratio (95% CI) / Heart failure event, hazard ratio (95% CI) / Heart failure hospitalization, hazard ratio (95% CI) / Primary composite outcome, hazard ratio (95% CI): vs placebo; for Primary composite outcome, hazard ratio (95% CI): overall trial population
Description: Patient eligibility requirements included age 18-85 years, New York Heart Association functional class (NYHA) II-IV symptoms, and ejection fraction of 35% or less. Participants were currently hospitalized for heart failure (in-patients) or had either an urgent visit to the emergency department or a hospitalization for heart failure (outpatients) within one year prior to randomization. […] Patients were required to receive standard drug and device therapy for heart failure consistent with regional clinical practice guidelines and doses optimized according to investigator judgment.
Key exclusion criteria for patients included current hemodynamic or clinical instability requiring mechanical or intravenous medication, systolic blood pressure (SBP)<85 mmHg, estimated glomerular filtration rate (eGFR)<20 mL/min/1.73 m^2, recent acute coronary syndrome events or cardiovascular procedures (including planned), and other conditions that would adversely affect participation in the trial.
All eligible participants were randomized 1:1 to oral administration of either placebo or omecamtiv mecarbil (pharmacokinetic-guided dosing: 25, 37.5 or 50 mg) twice daily. Pre-dose plasma concentrations of omecamtiv mecarbil were measured at weeks 2 and 6 with respective dose adjustments on weeks 4 and 8. The patient and investigator were blinded to the plasma concentrations and dispensed dose. The full schedule of assessments is provided in the protocol available at NEJM.org. Study drug was temporarily withheld if the participant experienced clinical signs or symptoms consistent with acute myocardial infarction or ischemia.
The study was event-driven and was ended after approximately 1590 cardiovascular deaths. The overall type I error was 0.05 for 2-sided testing across primary and secondary endpoints with control for multiplicity testing. A single interim efficacy analysis was conducted after approximately two-thirds of the targeted number of cardiovascular deaths accrued with a one-sided alpha of 0.0005. Given the negligible impact of this interim on the final alpha, the full 0.05 was used in the final analysis consistent with the Haybittle-Peto approach. […] The mean differences in the KCCQ TSS change from baseline to Week 24 were estimated using a mixed model stratified by randomization setting (inpatient and outpatient) containing baseline TSS value, region, baseline eGFR, scheduled visit, treatment group, and the interaction of treatment group with scheduled visit. A joint omnibus F-test was used to test the treatment effect for the KCCQ TSS. An overall pooled estimate for the KCCQ TSS treatment difference to placebo were conducted using a likelihood based approach. The prespecified safety analyses included: serious adverse events; adverse events associated with discontinuation of study treatment; “adverse events of interest” i.e., ventricular arrhythmias requiring treatment and positively adjudicated major cardiac ischemic events (including myocardial infarction, hospitalization for unstable angina, coronary revascularization). […] All analyses were performed with the use of SAS software, version 9.4 (SAS Institute).
The cumulative incidences of the primary outcome, heart failure events, death from cardiovascular causes and death from any cause were estimated with the use of the Kaplan-Meier method. Hazard ratios and 95% confidence intervals were estimated with the use of Cox regression models stratified by randomization location and region and treatment with omecamtiv mecarbil or placebo as explanatory variables. Analyses are based upon all participants who underwent randomization.

CYP3A4 [2] = test: Clinical studies and physiologically based pharmacokinetic modeling of OM as perpetrator; assay type: in vivo, human; conditions: clinical studies and PBPK modeling; result in words
Description: OM may be administered with drugs that are substrates of CYP3A4, CYP2C8, P-gp or BCRP.

CYP2D6 = CYP2D6 (Homo sapiens, UniProt P10635); test: Metabolism of OM by CYP enzymes; assay type: in vitro ADME; conditions: result in words; listed as OM
Description: (§1) Clearance of OM after oral administration was primarily through metabolism in the liver. […] Following oral administration of radiolabeled OM to healthy subjects, approximately 49% of the dose was excreted in urine (primarily as metabolites with 8% of parent compound recovered) and 38% in feces (primarily as unchanged drug).

CYP3A4 [3] = target: CYP3A4 (Homo sapiens, UniProt P08684); test: Metabolism of OM by CYP enzymes; assay type: in vitro ADME; conditions: result in words
Description: as §1

[4] = N = 4120, median follow-up 21.8 months
[5] = component of primary composite, N = 4120

CYP3A4 (Homo sapiens, UniProt P08684), sequence (P08684 whole entry): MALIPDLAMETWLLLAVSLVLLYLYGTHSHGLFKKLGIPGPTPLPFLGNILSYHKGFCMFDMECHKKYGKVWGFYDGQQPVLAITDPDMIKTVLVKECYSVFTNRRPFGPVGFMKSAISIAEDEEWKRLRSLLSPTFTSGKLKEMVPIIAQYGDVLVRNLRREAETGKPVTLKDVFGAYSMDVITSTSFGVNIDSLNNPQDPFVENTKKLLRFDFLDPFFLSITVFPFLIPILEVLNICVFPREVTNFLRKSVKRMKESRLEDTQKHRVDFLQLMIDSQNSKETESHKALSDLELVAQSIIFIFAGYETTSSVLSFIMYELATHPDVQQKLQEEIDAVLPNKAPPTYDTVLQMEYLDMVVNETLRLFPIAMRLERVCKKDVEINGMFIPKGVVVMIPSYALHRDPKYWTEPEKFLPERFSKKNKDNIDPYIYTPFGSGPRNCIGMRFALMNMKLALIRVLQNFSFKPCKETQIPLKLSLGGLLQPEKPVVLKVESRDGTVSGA
CYP2D6, sequence (P10635 whole entry): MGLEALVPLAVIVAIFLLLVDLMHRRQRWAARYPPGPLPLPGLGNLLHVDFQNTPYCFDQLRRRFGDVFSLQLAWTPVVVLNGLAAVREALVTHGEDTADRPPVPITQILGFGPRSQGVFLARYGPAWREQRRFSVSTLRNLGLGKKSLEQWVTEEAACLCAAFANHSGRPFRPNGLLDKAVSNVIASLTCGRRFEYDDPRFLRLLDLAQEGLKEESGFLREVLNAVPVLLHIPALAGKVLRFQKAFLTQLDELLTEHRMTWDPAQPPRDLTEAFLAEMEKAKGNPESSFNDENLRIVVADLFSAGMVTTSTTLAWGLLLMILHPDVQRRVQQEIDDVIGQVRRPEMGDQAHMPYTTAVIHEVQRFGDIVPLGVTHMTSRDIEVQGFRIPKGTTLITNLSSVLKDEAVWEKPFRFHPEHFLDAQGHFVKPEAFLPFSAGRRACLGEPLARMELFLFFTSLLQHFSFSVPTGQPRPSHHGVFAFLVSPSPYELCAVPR

## COC(=O)N1CCN(Cc2cccc(NC(=O)Nc3ccc(C)nc3)c2F)CC1 [omecamtiv mecarbil]
[1]; Inpatients
  Change in KCCQ total symptom score at week 24, difference vs placebo (95% CI): 2.5
  Change in KCCQ total symptom score at week 24, least squares mean (SE): 23.7 (0.70)
[1]; Inpatients, listed as Omecamtiv Mecarbil
  Change in KCCQ total symptom score at week 24, difference vs placebo (95% CI): 2.5 (0.54, 4.46)
[1]; N = 4120
  All-cause death, % of patients: 25.9%
  All-cause death, Events/100 patient-yrs: 14.4 Events/100 patient-yrs
  All-cause death, no. of patients: 1067 no.
  Cardiovascular death, Events/100 patient-yrs: 10.9 Events/100 patient-yrs
  Heart failure event (first), % of patients: 28.6%
  Heart failure event (first), no. of patients: 1177 no.
  Heart failure event, Events/100 patient-yrs: 18.7 Events/100 patient-yrs
  Heart failure hospitalization (first), % of patients: 27.7%
  Heart failure hospitalization (first), no. of patients: 1142 no.
  Heart failure hospitalization, Events/100 patient-yrs: 18.0 Events/100 patient-yrs
  Primary composite outcome, Events/100 patient-yrs: 24.2 Events/100 patient-yrs
[1]; [4]
  Primary composite outcome (first heart failure event or cardiovascular death), % of patients: 37.0%
  Primary composite outcome (first heart failure event or cardiovascular death), no. of patients: 1523 no.
[1]; Outpatients
  Change in KCCQ total symptom score at week 24, difference vs placebo (95% CI): −0.46
  Change in KCCQ total symptom score at week 24, least squares mean (SE): 5.8 (0.34)
[1]; Outpatients, listed as Omecamtiv Mecarbil
  Change in KCCQ total symptom score at week 24, difference vs placebo (95% CI): −0.5 (−1.40, 0.48)
[1]; [5]
  Cardiovascular death as first event, % of patients: 8.4%
  Cardiovascular death as first event, no. of patients: 346 no.
[1]; overall population, median 22 months
  Risk reduction of primary composite outcome compared to placebo: 8%
[1]; secondary outcome, N = 4120
  Cardiovascular death, % of patients: 19.6%
  Cardiovascular death, no. of patients: 808 no.
[1]
  All-cause death, hazard ratio (95% CI): 1.00
  Cardiovascular death, hazard ratio (95% CI): 1.01
  Heart failure event, hazard ratio (95% CI): 0.93
  Heart failure hospitalization, hazard ratio (95% CI): 0.95
  Primary composite outcome, hazard ratio (95% CI): 0.92
[1]; listed as Omecamtiv Mecarbil
  All-cause death, hazard ratio (95% CI): 1.00 (0.92, 1.09)
  Cardiovascular death, hazard ratio (95% CI): 1.01 (0.92, 1.11)
  Heart failure event, hazard ratio (95% CI): 0.93 (0.86, 1.00)
  Heart failure hospitalization, hazard ratio (95% CI): 0.95 (0.87, 1.03)
  Primary composite outcome, hazard ratio (95% CI): 0.92 (0.86, 0.99)
CYP3A4 [2]
  Induction of CYP3A4: weak inducer
CYP2D6
  Metabolism by CYP2D6: extensively metabolized; also recorded: metabolized in vitro
CYP3A4 [3]
  Metabolism by CYP3A4: substrate
CYP3A4 [3]; listed as OM
  Metabolism by CYP3A4: extensively metabolized; also recorded: metabolized in vitro
